# Assay results from US20020115594A1, “Peptide antagonists at glutamate and NMDA receptors” (priority 1993, published 2002).
# Ends that are not written are not given here.
# Legend:
# [1] = system: kainate receptors; test: In vitro GnRH secretion by hypothalamic explants induced by kainate; format: cell-based, rat; details: 10^−6 M; explants of 50-day-old male rats; FIG. 8
# Description: (§1) The hypothalamic explants of male Wistar rats were studied individually using a static incubation system described earlier (1-3, 9). The total incubation volume of each chamber (0.5 ml) was sampled and renewed every 7.5 min. Using these fractions, the radioimmunoassay of GnRH was performed as described in detail previously (1, 2). The secretion of GnRH was studied either in the absence of any secretagogue or during the 7.5-min exposure to 5.10^−5 M of veratridine, a depolarizing agent opening the Na^+ channel, or 5.10^−2 M of kainate or N-methyl-D, L-aspartate (NMA) which are agonists of distinct subtypes of glutamate receptors. All these products were bought from Sigma, St Louis, Mo. […] The secretory response of GnRH was calculated as the difference between the concentration measured immediately before and during exposure to the secretagogue.
# (§2) We studied the effects of the in-vitro exposure to increasing concentrations of recombinant hIGF-I (Kabi-Pharmacia, Stockholm, Sweden) or its two subproducts, (1-3)IGF-I (Peninsula, Merseyside, England) and (4-70)IGF-I (Gropep, Adelaide, Australia). […] At that time, the serum was collected for the assay of IGF-I using a method described elsewhere (15) and testosterone was measured as well using a standard RIA (Sorin Biomedica). […] The occurrence of significant GnRH secretory pulses was determined using the pulsar program (2, 3). […]
# [2] = system: GnRH secretion by hypothalamic explants; test: In vitro GnRH secretion by hypothalamic explants induced by veratridine (static incubation, GnRH radioimmunoassay); format: cell-based, rat
# Description: The hypothalamic explants of male Wistar rats were studied individually using a static incubation system described earlier (1-3, 9). The total incubation volume of each chamber (0.5 ml) was sampled and renewed every 7.5 min. Using these fractions, the radioimmunoassay of GnRH was performed as described in detail previously (1, 2). The secretion of GnRH was studied either in the absence of any secretagogue or during the 7.5-min exposure to 5.10^−5 M of veratridine, a depolarizing agent opening the Na^+ channel, or 5.10^−2 M of kainate or N-methyl-D, L-aspartate (NMA) which are agonists of distinct subtypes of glutamate receptors. All these products were bought from Sigma, St Louis, Mo. At 25 and 50 days, veratridine was used repeatedly at 37.5-min intervals. At 15 days, veratridine was used at 52.5-min intervals, i.e. beyond the period of refractoriness caused by the inhibitory autofeedback of GnRH(11). The secretory response of GnRH was calculated as the difference between the concentration measured immediately before and during exposure to the secretagogue.
# (§3) We studied the effects of the in-vitro exposure to increasing concentrations of recombinant hIGF-I (Kabi-Pharmacia, Stockholm, Sweden) or its two subproducts, (1-3)IGF-I (Peninsula, Merseyside, England) and (4-70)IGF-I (Gropep, Adelaide, Australia). We also studied the effects of other peptides. The GnRH fragments and analogs included (1-5) GnRH (UCB, Brussels, Belgium), (2-10)GnRH (Sigma, St Louis, Mo., USA) and (1-9)GnRHa (D-TRP^6-PRO^9-N-Ethylamide GnRH) a GnRH agonist kindly provided by Dr J Rivier (The Salk Institute, California, USA). The bovine Proinsulin and its subproducts included the C-peptide of insulin and insulin itself (Novo-Nordisk, Copenhagen, Denmark). Finally, the GRF-related peptides included (1-43) rat GRP (Bachem, Bubendorf, Switzerland), (1-37) human GRF (Peninsula, Merseyside, England) and (1-29)human GRF (Kabi Pharmacia, Stockholm, Sweden). AP-5 (DL-2-amino-5-phosphonovaleric acid, Sigma), a selective antagonist at NMDA receptors and DNQX (6,7-dinitro-quinoxaline-2,3-dione, Tocris Neuramin, Buckhurst Hill, United Kingdom) a selective antagonist at kainate receptors, were also used. The different peptides or antagonists were used for 15 min, i.e. the 7.5-min fraction before and during exposure to veratridine. We also studied the effects of a single s.c. injection of IGF-I or its subproducts in 15 or 50 day-old rats. Then, the animals were sacrificed and the hypothalamic explants studied 25 min after the injection, this interval being required to obtain plasma concentrations of IGF-I sufficient to affect protein metabolism (A. Skottner, personal communication). At that time, the serum was collected for the assay of IGF-I using a method described elsewhere (15) and testosterone was measured as well using a standard RIA (Sorin Biomedica). The concentration of the studied substances resulting in 50% inhibition of the GnRH secretory response (IC50) was calculated as described earlier (3, 9) and the data were compared by covariance analysis. The occurrence of significant GnRH secretory pulses was determined using the pulsar program (2, 3).
# FIG. 1. In vitro effects of IGF-I-related peptides on GnRH secretion by hypothalamic explants at 15, 25 and 50 days. GnRH secretory response to depolarizing episodes (veratridine 50 μM for 7.5 min) was studied repeatedly at intervals of 52.5 min at 15 days or 37.5 min at 25 and 50 days. Such study was performed in control conditions or in the presence of increasing concentrations of IGF-I and subproducts, (4-70)IGF-I and (1-3)IGF-I, as well as AP-5, a competitive antagonist at NMDA receptors. Each experiment was preceded and followed by a veratridine challenge in control conditions.
# [3] = system: GnRH secretion by hypothalamic explants; test: as above; format: cell-based, rat; remark: listed apart in the source
# [4] = system: glutamate receptors; test: Displacement of tritiated glutamate from hypothalamic membrane preparations; format: binding; details: FIG. 9
# Source text: Hypothalmic membrane preparations are used to study the displacement of tritiated glutamate binding in the presence of different compounds. Glutamate is able to displace the binding of the tracer at relatively low 10^−6 to 10^−8 concentrations. […] This is because the affinity of tritiated glutamate for the NMDA receptors is less than for the other subtypes of glutamate receptors.
# [5] = system: NMDA receptors; test: In vitro GnRH secretion by hypothalamic explants induced by NMA; format: cell-based, rat; details: 10^−6 M; explants of 50-day-old male rats; FIG. 8
# Description: as §1, §2
# [6] = system: brain hypoxic-ischemic injury; details: reported in refs 22, 23; cited from earlier work
# [7] = system: GnRH secretion by hypothalamic explants; test: Spontaneous pulsatile secretion of GnRH from hypothalamic explants after s.c. injection; format: in vivo, rat; details: s.c. injection of 0.1 mg/kg; 50-day-old rats; data not shown
# Source text: as §3, with “The different peptides or antagonists were used for 15 min, i.e. the 7.5-min fraction before and during exposure to veratridine. We also studied the effects of a single s.c. injection of IGF-I or its subproducts in 15 or 50 day-old rats. Then, the animals were sacrificed and the hypothalamic explants studied 25 min after the injection, this interval being required to obtain plasma concentrations of IGF-I sufficient to affect protein metabolism (A. Skottner, personal communication).” left out, “The concentration of the studied substances resulting in 50% inhibition of the GnRH secretory response (IC50) was calculated as described earlier (3, 9) and the data were compared by covariance analysis.” left out, “3). […]” for “3).”
# [8] = system: GnRH secretion by hypothalamic explants; test: Ex vivo veratridine-induced GnRH secretion by hypothalamic explants after in-vivo s.c. injection; parameters: species or system rat
# Source text: as §3, with “3). […]” for “3).”
# [9] = in vitro, explants of 50-day-old rats, FIG. 7
molecule,measurement,setting,value
"O=C1N=c2cc([N+](=O)[O-])c([N+](=O)[O-])cc2=NC1=O [DNQX, 6,7-dinitro-quinoxaline-2,3-dione]",effect on kainate-induced secretion of GnRH,[1],inhibitory effects
"(1-37)GRF: human GRF subproduct, minor physiological form with a C-terminal glutamic acid (YADAIFTNSYRKVLGQLSARKLLQDIMSRQQGESNQE; Somatoliberin; UniProt P01286 32-68, looked up, fragment)",effect on veratridine-induced secretion of GnRH,[2]; [9],dose-related inhibition
"CNC(CC(=O)O)C(=O)O (racemic) [NMA, N-methyl-D, L-aspartate, reference compound]",GnRH secretion induced by veratridine 5.10^−5 M,"[3]; +NMA 5.10^−4 M alone, 50-day-old male rats, mean, n = 6",98 % of controls
N[C@@H](CCC(=O)O)C(=O)O [Glutamate],concentrations displacing the binding of the tracer,[4],10^−6 to 10^−8
insulin: bovine insulin,effect on veratridine-induced secretion of GnRH,[2]; [9],no effects
"(1-5)GnRH: peptide with a N-terminal glutamic acid which results from the degradation of GnRH in the hypothalamus (QHWSY; ends and bridges not checked; UniProt P01148 24-28, looked up, fragment)",effect on veratridine-induced secretion of GnRH,[2]; FIG. 6,inhibited
same,displacement of tritiated glutamate binding,[4],act as competitors of glutamate binding
"NC(CCCP(=O)(O)O)C(=O)O (racemic) [AP-5, DL-2-amino-5-phosphonovaleric acid, reference compound]",effect on veratridine-induced secretion of GnRH,"[2]; in vitro, explants at 15, 25 and 50 days",dose-related suppression
same,effect on secretion of GnRH induced by NMA,[5],inhibitory effects
"(1-43)GRF: full (1-43) sequence of rat Growth Hormone-Releasing Factor (HADAIFTSSYRRILGQLYARKLLHEIMNRQQGERNQEQRSRFN; Somatoliberin; UniProt P09916 31-73, looked up) [reference compound]",effect on veratridine-induced secretion of GnRH,[2]; [9],dose-related inhibition
"(1-29)GRF: human GRF subproduct retaining GH-releasing activity (YADAIFTNSYRKVLGQLSARKLLQDIMSR; Somatoliberin; UniProt P01286 32-60, looked up, fragment) [reference compound]",effect on veratridine-induced secretion of GnRH,[2]; [9],does not affect
IGF-I: recombinant hIGF-I (Kabi-Pharmacia),effect on GnRH secretion at very high concentrations,"[2]; 10^−4 and 10^−3 M, explants at 15 days, FIG. 4",inhibition of GnRH secretion
same,effect on veratridine-induced secretion of GnRH,"[2]; in vitro, explants at 25 and 50 days",dose-related inhibition
same,effect on veratridine-induced secretion of GnRH,"[2]; in vitro, explants at 15 days",not affected
same,inhibitory effect on GnRH secretion in the presence of peptidase inhibitors,"[2]; three different peptidase inhibitors, FIG. 5",can be prevented
same,displacement of tritiated glutamate binding,[4],act as competitors of glutamate binding
same,protection against brain hypoxic-ischemic injury,[6],can protect
same,effect on GnRH secretion from explants of 30-day-old female rats,[3]; data not shown,inhibited
same,period for which spontaneous pulsatile secretion of GnRH is abolished,[7],~2 h
same,period of suppression of the GnRH secretory response to veratridine,"[8]; s.c. 0.05-0.2 mg/kg, directly related to dose, 50-day-old animals",47.5 to 107.5 min
same,ex vivo effectiveness on veratridine-induced GnRH secretion at 15 and 50 days,"[8]; s.c. injection, higher doses at 15 days, FIG. 3",only effective at 50 days
same,period of marked inhibition of in-vitro GnRH secretion in response to veratridine,"[8]; single s.c. injection of 0.5 mg/kg, 50-day-old animals",up to 167.5 min
"D-TRP^6-PRO^9-N-Ethylamide GnRH [(1-9)GnRHa, reference compound]",effect on veratridine-induced secretion of GnRH,[2]; FIG. 6,can be inhibited
same,IC50,"[2]; FIG. 6, read-out: IC50, inhibition of veratridine-induced GnRH secretion",0.2 nM
"Proinsulin: bovine Proinsulin (protein, UniProt P01317 25-105, looked up, pro-form) pro-form: FVNQHLCGSHLVEALYLVCGERGFFYTPKARREVEGPQVGALELAGGPGAGGLEGPPQKRGIVEQCCASVCSLYQLENYCN",effect on veratridine-induced secretion of GnRH,[2]; [9],dose-related suppression
